Results as given in publication PMC7144934, “Design, Synthesis and Biological Evaluation of Phenyl Urea Derivatives as IDO1 Inhibitors” (Molecules, 2020).
Entries after “also recorded” stand apart in the source; their conditions may differ. Read-outs that look alike come from different tables or passages of the source.

What was measured:
[1] = molecular target: T1, Recombinant human IDO1 (rhIDO1) (Homo sapiens, UniProt P14902); assay: Enzyme assay for IDO1 inhibition; type: biochemical; conditions: for IC50 / IDO1 inhibitory activity (in words): rhIDO1 enzyme assay; for IC50: 37 °C, 45 min
T1 construct: made in house

[2] = molecular target: T2, Recombinant human TDO (rhTDO) (Homo sapiens, UniProt P48775); assay: Enzyme assay for TDO inhibition; type: biochemical; conditions: 37 °C, 45 min
T2 construct: made in house
Description: Recombinant human IDO1 and TDO were expressed and purified according to the reported procedures. The assay was performed according to the literature: A standard reaction mixture (100 µL) containing 100 mM potassium phosphate buffer (pH 6.5), 40 mM ascorbic acid (neutralized with NaOH), 200 µg/mL catalase, 20 µM methylene blue and 0.05 µM rhIDO1 or rhTDO was added to the solution containing the substrate L-tryptophan and the test sample at a determined concentration. The reaction was carried out at 37 °C for 45 min and stopped by adding 20 µL of 30% (w/v) trichloroacetic acid. After heating at 65 °C for 15 min, 100 µL of 2% (w/v) p-dimethylaminobenzaldehyde in acetic acid was added to each well. The yellow pigment derived from kynurenine was measured at 492 nm using a SYNERGY-H1 microplate reader (Biotek Instruments, Inc., Winooski, VT, USA). IC50 was analyzed using the GraphPad Prism 8.0 software (GraphPad Software, San Diego, CA, USA).

[3] = system: human IDO1; design: method as in earlier work; conditions: human IDO1/HEK 293 cells; read-out: IDO1 inhibitory activity IC50; cited from earlier work
[4] = system: pathway; design: method as in PMID 30760888; conditions: Figure 1; cited from earlier work
[5] = system: IDO1; design: method as in PMID 30760888; conditions: Figure 1; cited from earlier work
[6] = Single dose pharmacokinetic study in male C57BL/6 mice; type: in vivo; conditions: for AUC(0-inf): male, C57BL/6, mouse; for MRT inf: read-out: MRT(0–∞); for half-life: read-out: t1/2β (converted)
Description: The animal Care and Welfare Committee of Institute of Materia Medica, Chinese Academy of Medical Sciences approved all animal care, housing, and laboratory procedures. Male C57BL/6 mice were used in the single dose pharmacokinetic studies. Compound i12 was prepared as a 3 mg/mL suspension with 0.5% CMC for oral use and was formulated as a 3 mg/mL solution with 10% DMSO in 20% HP-β-CD for intravenous injection. Sixteen mice were divided into two groups, 10 in the oral group and six in the intravenous group. After fasting 12 h with free access to water, mice were treated with a 3 mg/kg i.v. or 30 mg/kg oral dose of compound i12. Blood samples (50 µL) were collected at 5, 15, 30 min, 1, 2, 4, 6, 8, 12 and 24 h after oral administration and 2, 5, 15, 30 min, 1, 2, 4, 6, 8, 12 and 24 h after intravenous injection. After centrifugation, the plasma samples (20 µL) were precipitated by four volumes of acetonitrile. The supernatant were analyzed by liquid chromatography/tandem mass spectrometry with a Zorbax C18 column (50 mm × 2.1 mm, 3.5 µm). Compound detection was performed with the mass spectrometer in positive ionization mode by t-SIM: m/z 489.209 for compound i12. The pharmacokinetic parameters were calculated with WinNonlin software V6.3 using non-compartmental analysis (Pharsight Corporation, Mountain View, CA, USA).

[7] = system: mouse melanoma cells B16F10; assay: B16F10 subcutaneous xenograft model; type: in vivo, mice
Description: (§1) The mouse melanoma cells B16F10 were cultured and harvested in saline at 6 × 10^6 cells/0.2 mL volume. Cells (0.2 mL) were injected subcutaneously into male C57BL/6 mice at day 0 of the experiment, and treatment was initiated at day 1 following the mice enrolled randomly in control and experimental groups. For control group, 0.5% CMCNa was orally administered every day. The CTX group were administered CTX intraperitoneally at the dose of 100 mg/kg. Compound i12 was dissolved in 0.5% CMC-Na for oral treatment. After 17 days, the mice were sacrificed and the tumors were stripped and weighted. The tumor growth inhibition (TGI) was calculated as TGI = (1 − tumor weight treatment/tumor weight vehicle) × 100%. The statistical analysis was performed with GraphPad Prism 8.0 software and the significance level was evaluated with one-way ANOVA model.

[8] = system: mouse pancreatic cancer cells PAN02; assay: PAN02 pancreatic cancer subcutaneous xenograft model; type: in vivo, mice
Description: as §1, with “pancreatic cancer” for “melanoma”, “PAN02” for “B16F10”, “60 mg/kg” for “100 mg/kg.”, “15” for “17”

T1 sequence (P14902 whole entry): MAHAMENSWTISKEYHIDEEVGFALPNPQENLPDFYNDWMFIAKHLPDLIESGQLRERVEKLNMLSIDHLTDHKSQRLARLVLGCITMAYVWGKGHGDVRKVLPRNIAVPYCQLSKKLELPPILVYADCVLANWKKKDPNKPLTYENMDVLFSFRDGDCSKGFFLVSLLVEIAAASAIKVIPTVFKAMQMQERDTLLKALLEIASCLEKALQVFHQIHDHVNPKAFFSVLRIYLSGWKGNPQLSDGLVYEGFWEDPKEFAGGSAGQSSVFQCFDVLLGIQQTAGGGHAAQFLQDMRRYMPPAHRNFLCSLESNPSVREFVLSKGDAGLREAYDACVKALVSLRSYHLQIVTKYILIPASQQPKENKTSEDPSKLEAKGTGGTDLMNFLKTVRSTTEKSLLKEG
T2 sequence (P48775 whole entry): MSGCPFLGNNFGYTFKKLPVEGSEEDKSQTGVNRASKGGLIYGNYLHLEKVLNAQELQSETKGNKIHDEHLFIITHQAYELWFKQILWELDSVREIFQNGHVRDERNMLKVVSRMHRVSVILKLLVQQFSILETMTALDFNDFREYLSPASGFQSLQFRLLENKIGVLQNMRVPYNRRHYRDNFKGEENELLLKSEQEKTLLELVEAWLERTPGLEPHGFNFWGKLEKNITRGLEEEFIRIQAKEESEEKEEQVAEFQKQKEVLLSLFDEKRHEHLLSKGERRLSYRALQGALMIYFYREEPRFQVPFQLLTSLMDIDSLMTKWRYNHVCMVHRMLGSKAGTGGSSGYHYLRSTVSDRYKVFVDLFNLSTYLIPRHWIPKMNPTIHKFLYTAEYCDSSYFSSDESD

| IC50 [1] [µM] | IC50 [2] [µM] | IDO1 inhibitory activity (in words) [1] | SMILES | further results |
| --- | --- | --- | --- | --- |
| > 100 | > 100 | no inhibitory activities | CC1CC(C)CN(c2ccc(C(CC(=O)O)C(F)(F)F)cc2NC(=O)Nc2ccc(Cl)cc2Cl)C1 (stereo not drawn) [i17, 3-[3-[3-(2,4-dichlorophenyl)ureido]-4-(3,5-dimethylpiperidin-1-yl)-phenyl]-4,4,4-trifluorobutyric Acid] | – |
| > 100 | > 100 | no inhibitory activity | CC1CC(C)CN(c2ccc(C(CC(=O)O)C(F)(F)F)cc2NC(=O)Cc2ccc([N+](=O)[O-])cc2)C1 (stereo not drawn) [j3, 3-{4-(3,5-dimethylpiperidin-1-yl)-3-[2-(4-nitrophenyl)acetylamino]-phenyl}-4,4,4-trifluorobutyric Acid] | – |
| > 100 | > 100 | lost all IDO1 inhibitory activity | COc1ccccc1NC(=O)Nc1cc(C(CC(=O)O)C(F)(F)F)ccc1N1CC(C)CC(C)C1 (stereo not drawn) [i13, 3-{4-(3,5-dimethylpiperidin-1-yl)-3-[3-(2-methoxyphenyl)ureido]-phenyl}-4,4,4-trifluorobutyric Acid] | – |

The next lines start with the compound.

| SMILES | IC50 [1] [µM] | IC50 [2] [µM] | IDO1 inhibitory activity (in words) [1] | further results |
| --- | --- | --- | --- | --- |
| CC(C)CN(CC(C)C)c1ccc(C(CC(=O)O)C(F)(F)F)cc1NC(=O)Nc1ccc(F)cc1F (stereo not drawn) [BMS-E30, reference compound] | 8.57 | > 100 | – | IC50 [3]: 0.0007 µM |
| Cn1cc(C[C@@H](N)C(=O)O)c2ccccc21 [indoximod] | – | – | – | IC50 [4]: 0.45 µM |
| CC1CC(C)CN(c2ccc(C(CC(=O)O)C(F)(F)F)cc2NC(=O)Nc2ccccc2)C1 (stereo not drawn) [i1, 3-[4-(3,5-dimethylpiperidin-1-yl)-3-(3-phenylureido)-phenyl]-4,4,4-trifluorobutyric Acid] | 34.1 | > 100 | – | melting point: 94.1 to 95.7 °C |
| CC1CC(C)CN(c2ccc(C(CC(=O)O)C(F)(F)F)cc2NC(=O)Nc2ccc(C#N)cc2)C1 (stereo not drawn) [i12, 3-[3-[3-(4-cyanophenyl)ureido]-4-(3,5-dimethylpiperidin-1-yl)-phenyl]-4,4,4-trifluorobutyric Acid] | 0.331 | > 100 | more potent IDO1 inhibitory activity than the unsubstituted i1 | fold improvement in IDO1 inhibitory activity compared to compound i1 ([1]; ratio of IDO1 enzyme IC50 values): 100 fold; AUC(0–∞) ([6]; PO 30 mg/kg, 30 mg/kg): 12,849 h·ng/mL; AUC(0-inf) ([6]; plasma, iv, 3 mg/kg, IV 3 mg/kg): 2160 ng·h/mL; AUC(0-inf) ([6]; plasma, po, 30 mg/kg, PO 30 mg/kg): 11500 ng·h/mL; AUC(0-t) ([6]; mouse, plasma, IV 3 mg/kg): 1320 ng·h/mL; Cmax ([6]; mouse, plasma, IV 3 mg/kg): 6960 ng/mL; clearance ([6]; mouse, plasma, IV 3 mg/kg, read-out: Cl (plasma clearance)): 22.4 mL/min/kg; MRT inf ([6]; mouse, plasma, IV 3 mg/kg): 8.6 h; Vd ([6]; mouse, plasma, IV 3 mg/kg, read-out: Vss): 15.8 L/kg; half-life ([6]; mouse, plasma, IV 3 mg/kg): 7.17 h; AUC(0-t) ([6]; mouse, plasma, PO 30 mg/kg): 11500 ng·h/mL; Cmax ([6]; mouse, plasma, PO 30 mg/kg): 2700 ng/mL; Tmax ([6]; mouse, plasma, PO 30 mg/kg): 2 h; bioavailability ([6]; mouse, plasma, PO 30 mg/kg vs IV 3 mg/kg, read-out: F% (oral bioavailability)): 87.4%; MRT inf ([6]; mouse, plasma, PO 30 mg/kg): 8.18 h; half-life ([6]; mouse, plasma, PO 30 mg/kg): 11.2 h; tumor growth inhibition (TGI) ([7]; 15 mg/kg daily, oral, 17 days, tumor weight): 40.5%; body weight compared with the control group ([7]; i12 orally 15, 30 or 100 mg/kg, B16F10 xenograft mice): no obvious body weight difference; also recorded: no obvious reduction; also recorded: no significant changes; tumor growth inhibition (TGI) ([8]; 30 mg/kg daily, oral, 15 days, tumor weight): 34.3%; body weight of each group after the treatment ([8]; i12 orally 10, 30 or 100 mg/kg, PAN02 xenograft mice): no obvious body weight difference |
| C[C@@H](C(=O)Nc1ccc(Cl)cc1)C1CCC(c2ccnc3ccc(F)cc23)CC1 (stereo partly drawn) [BMS-986205] | – | – | – | IC50 [5]: 0.0017 µM |
| CCOC(=O)CC(c1ccc(N2CC(C)CC(C)C2)c(NC(=O)Nc2ccc(Cl)cc2)c1)C(F)(F)F (stereo not drawn) [g3, 3-[3-[3-(4-chlorophenyl)-ureido]-4-(3,5-dimethylpiperidin-1-yl)-phenyl]-4,4,4-trifluorobutyric Acid Ethyl Ester] | > 100 | > 100 | – | – |
| CCCCNC(=O)Nc1cc(C(CC(=O)O)C(F)(F)F)ccc1N1CC(C)CC(C)C1 (stereo not drawn) [i5, 3-[3-(3-butylureido)-4-(3,5-dimethylpiperidin-1-yl)-phenyl]-4,4,4-trifluorobutyric Acid] | > 100 | > 100 | loss of inhibition | – |
| CCOC(=O)CC(c1ccc(N2CC(C)CC(C)C2)c(NC(=O)Nc2ccc(C)cc2)c1)C(F)(F)F (stereo not drawn) [g2, 3-[4-(3,5-dimethylpiperidin-1-yl)-3-(3-p-tolylureido)phenyl]-4,4,4-trifluorobutyric Acid Ethyl Ester] | > 100 | > 100 | – | – |
| CC1CC(C)CN(c2ccc(C(CC(=O)O)C(F)(F)F)cc2NC(=O)Nc2ccc(Cl)cc2)C1 (stereo not drawn) [i3, 3-[3-[3-(4-chlorophenyl)ureido]-4-(3,5-dimethylpiperidin-1-yl)-phenyl]-4,4,4-trifluorobutyric Acid] | 5.69 | > 100 | more potent IDO1 inhibitory activity than the unsubstituted i1 | – |
